{"source": "patent US20250281629A1", "about": "“COMPOSITIONS AND METHODS FOR ANTI-PHOSPHOCHOLINE ACTIVE IMMUNOTHERAPY” (Duke University, priority 2022, published 2025)", "format_in_all_cases": "in vivo, mouse", "key": {"[1]": {"system": "B1a cells (CD19^+CD5^+)", "assay": "Colon B cell populations by flow cytometry: B1a cells", "settings": "vs other DSS-administered mice", "procedure": "(§1) Determination of Colon B cell Populations. Small colon samples collected from either after immunization only or after colitis experiments were collected at experimental endpoints. Colon samples were flushed with PBS and then digested in a solution containing 200 U/mL collagenase from Clostridium histolyticum (Sigma, C5138) and 0.1 mg/mL DNase I (Sigma, 10104159001) in 1×PBS. Digestion occurred at 37° C. while shaking for a total of 30 minutes. The solutions were then filtered to isolate cells, spun down, and transferred into ice cold flow buffer (2% heat-inactivated FBS in 1×PBS). The cells were blocked with mouse BD Fc Block (Clone: 2.4G2) (BD Biosciences, 553142) for 30 min on ice and then washed in flow buffer and stained with antibodies against CD5-APC (Clone: 53-7.3) (BioLegend, 100626), CD19-APC/Cy7 (Clone: 6D5) (BioLegend, 115530), B220-PE (Clone: RA3-6B2) (BioLegend, […]), and CD138-PE/Cy7 (Clone: 281-2) (BioLegend, […]) in flow buffer for 30 min on ice. Cells were washed and DAPI was added. Flow cytometry was then conducted on a BD FACSCanto II cytometer and the results were analyzed using FlowJo software."}, "[2]": {"system": "C57BL/6 mice", "assay": "Therapeutic DSS colitis model (immunization between DSS cycles)", "source_text": "DSS-Induced Colitis and Assessment. Before inducing colitis, mice from each treatment group were divided amongst the cages to avoid any cage-related disease effects. This excluded the PBS without DSS (healthy) control mice which remained in their own cage and received normal drinking water for the duration of the experiment. Colitis was induced by administering 2% (w/v) colitis-grade dextran sodium sulfate (MP Biomedicals, 160110) in drinking water. For determination of prophylactic immunization efficacy, mice were immunized i.p. 3 times at days −35, −21 and −7 before colitis induction on Day 0. Chronic colitis was induced via DSS-containing water given for 5 days followed by 5 days of normal drinking water for 3 cycles, resulting in a 30-day model. A shorter, acute DSS-induced colitis model consisting of one cycle of colitis was achieved by giving 5 days of 2% DSS in water followed by 5 days of normal drinking water for a total of 10 days and was also examined in a preventative immunization scenario. Mice were weighed daily and evaluated for the IACUC approved humane endpoint of >30% weight loss as DSS mice regain weight quickly after DSS administration ceases. They were also monitored for occult blood with Hemoccult tape and developer (Beckman Coulter, 63202) and fecal consistency. […] At the experimental endpoint, mice were euthanized, and colon lengths were measured from the base of the cecum to the rectum using digital calibrators. […] Mice were monitored daily as described above until they on average regained their original body weight on day 20. […] The entire therapeutic model ended on day 60, and colon lengths were measured as described above.\nFITC-dextran Measurements. […] To determine the intestinal barrier permeability, serum samples were diluted in 1×PBS and FITC fluorescence intensity was measured at an excitation of 488 nm and emission of 520 nm. […]\nSpleen Bacteria Measurements. […] After a 48 hr incubation at 37° C., colony forming units (CFUs) were counted and converted to CFU/g of spleen tissue via the equations: […]"}, "[3]": {"system": "C57BL/6 mice", "assay": "One cycle acute DSS-induced colitis, female and male mice", "source_text": "DSS-Induced Colitis and Assessment. Before inducing colitis, mice from each treatment group were divided amongst the cages to avoid any cage-related disease effects. This excluded the PBS without DSS (healthy) control mice which remained in their own cage and received normal drinking water for the duration of the experiment. Colitis was induced by administering 2% (w/v) colitis-grade dextran sodium sulfate (MP Biomedicals, 160110) in drinking water. For determination of prophylactic immunization efficacy, mice were immunized i.p. 3 times at days −35, −21 and −7 before colitis induction on Day 0. Chronic colitis was induced via DSS-containing water given for 5 days followed by 5 days of normal drinking water for 3 cycles, resulting in a 30-day model. A shorter, acute DSS-induced colitis model consisting of one cycle of colitis was achieved by giving 5 days of 2% DSS in water followed by 5 days of normal drinking water for a total of 10 days and was also examined in a preventative immunization scenario. Mice were weighed daily and evaluated for the IACUC approved humane endpoint of >30% weight loss as DSS mice regain weight quickly after DSS administration ceases. They were also monitored for occult blood with Hemoccult tape and developer (Beckman Coulter, 63202) and fecal consistency. Disease activity index (DAI) scores were a combination of weight loss (≥100%=0, 90-99%=1, 80-89%=2, […]), occult blood (no blood=0, blood=3), and fecal consistency (hard=0, soft=1, softer=2, runny=3), with a possible daily maximum score of 9. […] At the experimental endpoint, mice were euthanized, and colon lengths were measured from the base of the cecum to the rectum using digital calibrators. To determine immunization efficacy in a therapeutic colitis setting, colitis was first induced by administering one cycle of colitis achieved by 5 days of 2% DSS in water followed by 5 days of normal drinking water for a total of 10 days. Mice were monitored daily as described above until they on average regained their original body weight on day 20. At this point, i.p. immunizations were initiated and given three times over a 4-week period on days 20, 32, and 45, and colitis monitoring was reduced to twice weekly. An additional cycle of colitis was then induced on day 51 via 5 days of 2% DSS in water followed by 5 days of normal drinking water for a total of 10 days with daily monitoring. The entire therapeutic model ended on day 60, and colon lengths were measured as described above.\nSpleen Bacteria Measurements. At the conclusion of the DSS experiments, spleens were harvested and weighed followed by homogenization in 500 μL of 0.1% Triton X-100 in sterile 1×PBS using a Tissue Tearer handheld homogenizer (Biospec Products). 25 μL of homogenate solution was then spread on each quarter of culture plates consisting of tryptic soy broth No. 2 (Sigma, 51228) and Difco agar, granulated (BD Biosciences, 214530) in dilutions from 100 to 103. After a 48 hr incubation at 37° C., colony forming units (CFUs) were counted and converted to CFU/g of spleen tissue via the equations: […]\nColon IL-10 Quantification. At the conclusion of some DSS experiments, one half of the harvested mouse colons were flushed with PBS to remove fecal matter and flash frozen in liquid nitrogen. Later, colons were thawed on ice, weighed, and homogenized in 2 μL/mg of Tissue Extraction Reagent I (Thermo Fisher, FNN0071) with a protease inhibitor tablet (Thermo Fisher, A32955) using a Navy Bead Lysis Kit (Next Advance, NAVYE1). The amount of IL-10 in colon homogenate supernatants was then measured using an IL-10 mouse ELISA kit (Invitrogen, 88-7105-22) in accordance with the manufacturer's protocol."}, "[4]": {"system": "plasma cells (B220^+CD138^+)", "assay": "Colon B cell populations by flow cytometry: plasma cells", "settings": "vs disease controls", "procedure": "as §1"}}, "note": "Where no end group is shown, it is not given here."}
{"substance": "(C11H22NO6P)n-CCCCSGSG-QQKFQFQFEQQ-NH2 (CCCCSGSGQQKFQFQFEQQ-NH2; not fully specified; cysteine pairing not given here; also: phosphorylcholine groups (C11H22NO6P) n=1-4, attachment not placed) [PCM-Q11, linear multi-PC conjugate]", "values": [{"measurement": "colonic B1a cells after chronic DSS colitis", "setting": "[1]", "result": "decrease in B1a cells"}, {"measurement": "anti-PC IgG responses in mice with prior DSS colitis", "setting": "[2]; i.p. days 20, 32, 45, without CpG, vs immunization in absence of prior colitis", "result": "higher anti-PC IgG responses"}, {"measurement": "IgG subclasses in mice with prior DSS colitis", "setting": "[2]; mouse, in vivo", "result": "not altered"}, {"measurement": "anti-PC IgM response in mice with prior DSS colitis", "setting": "[2]; without CpG", "result": "measurable anti-PC IgM response"}, {"measurement": "colon lengths", "setting": "[3]; both sexes, vs CpG-immunized mice and DSS disease controls", "result": "increased colon lengths"}, {"measurement": "serum anti-PC IgM, female mice", "setting": "[3]; female", "result": "undetectable"}, {"measurement": "spleen colony forming units (CFUs), female mice", "setting": "[3]; female", "result": "dramatically decreased spleen colony forming units (CFUs)"}, {"measurement": "colon IL-10 levels, male mice", "setting": "[3]; male", "result": "not significantly reduced compared to healthy controls"}, {"measurement": "serum anti-PC IgM, male mice", "setting": "[3]; male", "result": "significantly less anti-PC IgM than PCM-Q11/CpG"}, {"measurement": "spleen CFUs / bacterial spread, male mice", "setting": "[3]; male", "result": "This trend was also present, though not statistically significant"}, {"measurement": "protective efficacy / disease metrics, female mice", "setting": "[3]; one cycle 2% DSS, 10 days, female", "result": "significant protective efficacy"}, {"measurement": "weight loss and disease activity index scores, male mice", "setting": "[3]; one cycle 2% DSS, male", "result": "improved weight loss and disease activity index scores"}, {"measurement": "colon plasma cells after chronic DSS colitis", "setting": "[4]", "result": "more plasma cells than disease controls"}]}
